Measured values taken from US8394823B2, “Triazolopyridine compounds useful as DGAT1 inhibitors” (Bristol-Myers Squibb Company, priority 2008, dated 2013).

Biological target: T1, recombinant human DGAT1 (Homo sapiens, UniProt O75907)
T1 construct: made in house; host or cells: Sf9 insect cells (baculovirus)
T1 sequence (O75907 1-488): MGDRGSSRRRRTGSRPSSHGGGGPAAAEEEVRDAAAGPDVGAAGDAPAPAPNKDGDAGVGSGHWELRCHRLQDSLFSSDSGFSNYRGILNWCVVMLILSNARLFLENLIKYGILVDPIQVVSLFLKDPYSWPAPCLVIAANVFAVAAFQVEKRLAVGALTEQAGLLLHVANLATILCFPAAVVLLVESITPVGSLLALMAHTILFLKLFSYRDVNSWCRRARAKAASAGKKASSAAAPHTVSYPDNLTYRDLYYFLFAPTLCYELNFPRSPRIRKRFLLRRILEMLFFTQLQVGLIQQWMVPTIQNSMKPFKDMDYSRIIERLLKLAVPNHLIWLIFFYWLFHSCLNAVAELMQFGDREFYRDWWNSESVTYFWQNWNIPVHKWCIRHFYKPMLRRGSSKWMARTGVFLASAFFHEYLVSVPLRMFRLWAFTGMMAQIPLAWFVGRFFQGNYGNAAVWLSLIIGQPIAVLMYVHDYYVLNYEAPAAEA
Test: DGAT1 enzyme assay
Format: biochemical
Settings: membranes from Sf9 insect cells expressing recombinant human DGAT1; 25 μM 2-monooleoyl-glycerol, 25 μM [3H]-stearoyl-CoA, pH 7.4, 30 min, 25° C., SPA
Protocol: DGAT1 enzyme assays were conducted using membranes isolated from Sf9 insect cells expressing the recombinant human DGAT1 cDNA. The assays were conducted in 384-well plates with total volume of 25 μl at 25° C. In each assay, 300 ng of recombinant human DGAT1 membrane was incubated with 25 μM of 2-monooleoyl-glycerol and 25 μM of [^3H]-stearoyl-CoA in 100 mM potassium phosphate (pH 7.4) for 30 min with various concentrations of compounds delivered in DMSO. The assay was terminated by the addition of 30 μl of Stopping Solution [50 mM HEPES, 5 mg/ml Yittrium Oxide (YOX) Polylysine SPA beads, 3.33 mg/ml Fraction V BSA, 200 μM Mercuric chloride]. The signal was measured using LEADSEEKER^SM for 5 minutes. To calculate the degree of inhibition, the zero level of enzyme activity (blank) was defined by the above assay using Sf9 cell membrane uninfected with baculovirus and the 100% level of DGAT1 enzyme activity was defined by human DGAT1 assay with the vehicle DMSO. The IC50 values of inhibitors were determined by Excel-fit.

| SMILES | IC50 [nM] |
| --- | --- |
| CC(C)[C@H](Cc1nnc2cc(-c3ccc(Nc4nc5ccc(Cl)cc5s4)cc3)ccn12)C(=O)O [Example 1, (S)-2-((7-(4-(6-Chlorobenzo[d]thiazol-2-ylamino)phenyl)-[1,2,4]triazolo[4,3-a]pyridin-3-yl)methyl)-3-methylbutanoic acid] | 10 |
| COC(=O)[C@@H](Cc1nnc2cc(-c3ccc(Nc4nc5ccc(Cl)cc5s4)cc3)ccn12)C(C)C [Example 1F, (S)-Methyl 2-((7-(4-(6-chlorobenzo[d]thiazol-2-ylamino)phenyl)-[1,2,4]triazolo[4,3-a]pyridin-3-yl)methyl)-3-methylbutanoate] | 7200 |
| CC(C)[C@@H](Cc1nnc2cc(-c3ccc(Nc4nc5ccc(Cl)cc5s4)cc3)ccn12)C(=O)O [Example 2, (R)-2-((7-(4-(6-Chlorobenzo[d]thiazol-2-ylamino)phenyl)-[1,2,4]triazolo[4,3-a]pyridin-3-yl)methyl)-3-methylbutanoic acid] | 160 |
| COC(=O)[C@H](Cc1nnc2cc(-c3ccc(Nc4nc5ccc(Cl)cc5s4)cc3)ccn12)C(C)C [Example 2B, (R)-Methyl 2-((7-(4-(6-chlorobenzo[d]thiazol-2-ylamino)phenyl)-[1,2,4]triazolo[4,3-a]pyridin-3-yl)methyl)-3-methylbutanoate] | 15000 |
| CC(C)C[C@H](Cc1nnc2cc(-c3ccc(Nc4nc5ccc(Cl)cc5s4)cc3)ccn12)C(=O)O [Example 3, (R)-2-((7-(4-(6-Chlorobenzo[d]thiazol-2-ylamino)phenyl)-[1,2,4]triazolo[4,3-a]pyridin-3-yl)methyl)-4-methylpentanoic acid] | 320 |
| COC(=O)[C@@H](Cc1nnc2cc(-c3ccc(Nc4nc5ccc(Cl)cc5s4)cc3)ccn12)CC(C)C [Example 3B, (R)-Methyl 2-((7-(4-(6-chlorobenzo[d]thiazol-2-ylamino)phenyl)-[1,2,4]triazolo[4,3-a]pyridin-3-yl)methyl)-4-methylpentanoate] | 25000 |
| CC(C)C[C@@H](Cc1nnc2cc(-c3ccc(Nc4nc5ccc(Cl)cc5s4)cc3)ccn12)C(=O)O [Example 4, (S)-2-((7-(4-(6-Chlorobenzo[d]thiazol-2-ylamino)phenyl)-[1,2,4]triazolo[4,3-a]pyridin-3-yl)methyl)-4-methylpentanoic acid] | 2800 |
| COC(=O)[C@H](Cc1nnc2cc(-c3ccc(Nc4nc5ccc(Cl)cc5s4)cc3)ccn12)CC(C)C [Example 4B, (S)-Methyl 2-((7-(4-(6-chlorobenzo[d]thiazol-2-ylamino)phenyl)-[1,2,4]triazolo[4,3-a]pyridin-3-yl)methyl)-4-methylpentanoate] | 50000 |
| CCCC[C@H](Cc1nnc2cc(-c3ccc(Nc4nc5ccc(Cl)cc5s4)cc3)ccn12)C(=O)O [Example 5, (R)-2-((7-(4-(6-Chlorobenzo[d]thiazol-2-ylamino)phenyl)-[1,2,4]triazolo[4,3-a]pyridin-3-yl)methyl)hexanoic acid] | 200 |
| O=C(O)[C@@H](Cc1nnc2cc(-c3ccc(Nc4nc5ccc(Cl)cc5s4)cc3)ccn12)CC1CCCCC1 [Example 6, (R)-3-(7-(4-(6-Chlorobenzo[d]thiazol-2-ylamino)phenyl)-[1,2,4]triazolo[4,3-a]pyridin-3-yl)-2-(cyclohexylmethyl)propanoic acid] | 3600 |
| O=C(O)[C@@H](Cc1nnc2cc(-c3ccc(Nc4nc5ccc(Cl)cc5s4)cc3)ccn12)C1CCCCC1 [Example 7, (S)-3-(7-(4-(6-Chlorobenzo[d]thiazol-2-ylamino)phenyl)-[1,2,4]triazolo[4,3-a]pyridin-3-yl)-2-cyclohexylpropanoic acid] | 2800 |
| O=C(O)CCc1nnc2cc(-c3ccc(Nc4nc5ccc(Cl)cc5s4)cc3)ccn12 [Example 8, 3-(7-(4-(6-Chlorobenzo[d]thiazol-2-ylamino)phenyl)-[1,2,4]triazolo[4,3-a]pyridin-3-yl)propanoic acid] | 490 |
